pIC50: −log10 of the molar value.
Experiments:
Format in all cases: biochemical
Human Factor XIIa = Human Factor XIIa (Homo sapiens (Human), UniProt P00748); test: Determination of FXIIa inhibition (fluorogenic substrate H-DPro-Phe-Arg-AFC, IC50 assay); details: substrate H-DPro-Phe-Arg-AFC at Km, 25° C.; class scale A-G
Summary of the method: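 IC50 derived from % remaining activity, taken as the linear fluorescence rate over a 5 min read at 25° C. Substrate H-DPro-Phe-Arg-AFC was used at its Km (Michaelis-Menten) with human FXIIa and serial compound dilutions, 25° C.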

KLK1 = KLK1 (Homo sapiens (Human), UniProt P06870); test: Determination of related protease inhibition: KLK1 (fluorogenic substrate at Km); details: 25° C.
Description: (§1) Determination of Related Protease Inhibition
(§2) In vitro inhibition of related proteases was determined using an ([…] assay based on standard literature methods (see e.g. Shori et al., Biochem. Pharmacol., 1992, 43, 1209; Bouckaert et al., European Journal of Medicinal Chemistry 110 (2016) 181). Human serine protease enzymes Plasma Kallikrein, KLK1, FXa, Plasmin, Thrombin and Trypsin were assayed for enzymatic activity using an appropriate fluorogenic substrate at Km concentration, FXIa at fixed substrate concentration of 100 μM, and various concentrations of the test compound. Protease activity was measured by monitoring the accumulation of liberated fluorescence from the substrate over […]. The linear rate of fluorescence increase per minute was expressed as percentage (%) activity. IC50 values were calculated as the concentration of inhibitor giving 50% inhibition of the uninhibited enzyme activity (100%).

FXa = FXa (Homo sapiens (Human), UniProt P00742); test: Determination of related protease inhibition: FXa (fluorogenic substrate at Km); details: 25° C.
Description: as §1, §2

Sequence of FXa (P00742 235-488): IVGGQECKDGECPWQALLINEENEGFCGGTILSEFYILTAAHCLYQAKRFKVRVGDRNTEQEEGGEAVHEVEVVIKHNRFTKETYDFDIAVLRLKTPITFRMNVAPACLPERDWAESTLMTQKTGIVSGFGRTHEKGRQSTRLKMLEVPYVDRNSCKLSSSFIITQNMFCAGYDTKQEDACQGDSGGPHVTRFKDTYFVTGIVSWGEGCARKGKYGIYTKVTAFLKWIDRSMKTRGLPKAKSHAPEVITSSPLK
Sequence of FXa (P00742 41-179 partner): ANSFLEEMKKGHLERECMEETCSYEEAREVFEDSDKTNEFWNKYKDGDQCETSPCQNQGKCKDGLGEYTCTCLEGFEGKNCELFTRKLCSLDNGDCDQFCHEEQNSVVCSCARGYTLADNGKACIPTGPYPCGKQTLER
Sequence of KLK1 (P06870 25-262): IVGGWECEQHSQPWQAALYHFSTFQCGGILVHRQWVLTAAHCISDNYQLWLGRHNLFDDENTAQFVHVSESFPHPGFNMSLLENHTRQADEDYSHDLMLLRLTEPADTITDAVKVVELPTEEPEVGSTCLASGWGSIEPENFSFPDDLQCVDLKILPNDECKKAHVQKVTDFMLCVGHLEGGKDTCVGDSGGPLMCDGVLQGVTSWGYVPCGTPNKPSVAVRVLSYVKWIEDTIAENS
Sequence of Human Factor XIIa (P00748 373-615): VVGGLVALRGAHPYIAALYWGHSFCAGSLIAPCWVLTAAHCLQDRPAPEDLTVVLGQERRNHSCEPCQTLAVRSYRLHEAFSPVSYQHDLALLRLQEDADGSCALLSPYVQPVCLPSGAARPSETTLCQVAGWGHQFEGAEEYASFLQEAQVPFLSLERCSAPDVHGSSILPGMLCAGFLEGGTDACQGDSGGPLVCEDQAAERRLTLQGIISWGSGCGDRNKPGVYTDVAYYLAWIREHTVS

Row | pIC50 (Human Factor XIIa) | pIC50 (KLK1) | pIC50 (FXa) | SMILES
1 | 6.00 to 6.52 | 5.52 to 6.00 | < 4.40 | Cn1ncc2c1CCN(c1ccc(CNc3cccc4c(N)nccc34)cn1)C2 [Example 1286, N5-((6-(1-methyl-1,4,6,7-tetrahydro-5H-pyrazolo[4,3-c]pyridin-5-yl)pyridin-3-yl)methyl)isoquinoline-1,5-diamine]
2 |  | < 4.40 | < 4.40 | Cc1cc(NCc2ccc(N3CCn4c(nnc4C(F)(F)F)C3)nc2)c2cc(Cl)[nH]c2n1 [Example 1293, 2-chloro-6-methyl-N-((6-(3-(trifluoromethyl)-5,6-dihydro-[1,2,4]triazolo[4,3-a]pyrazin-7(8H)-yl)pyridin-3-yl)methyl)-1H-pyrrolo[2,3-b]pyridin-4-amine]
3 | 6.00 to 6.52 | 4.40 to 5.00 | < 4.40 | Nc1nccc2c(N3CCCC3c3ccc(N4CCn5c(nnc5C(F)(F)F)C4)nc3)cccc12 (single isomer, unassigned) [Example 10004, (R*)-5-(2-(6-(3-(trifluoromethyl)-5,6-dihydro-[1,2,4]triazolo[4,3-a]pyrazin-7(8H)-yl)pyridin-3-yl)pyrrolidin-1-yl)isoquinolin-1-amine]
4 |  | < 4.40 | < 4.40 | FC(F)(F)c1nnc2n1CCN(c1ccc(CNc3cnc4[nH]cc(Cl)c4c3)cn1)C2 [Example 1289, 3-chloro-N-((6-(3-(trifluoromethyl)-5,6-dihydro-[1,2,4]triazolo[4,3-a]pyrazin-7(8H)-yl)pyridin-3-yl)methyl)-1H-pyrrolo[2,3-b]pyridin-5-amine]
5 | 5.00 to 5.52 | 5.00 to 5.52 |  | Cc1cc(N2CCn3c(nnc3C(F)(F)F)C2C)ncc1CNc1cccc2c(N)nccc12 (single isomer, unassigned) [Example 1304, (R*)-N5-((4-methyl-6-(8-methyl-3-(trifluoromethyl)-5,6-dihydro-[1,2,4]triazolo[4,3-a]pyrazin-7(8H)-yl)pyridin-3-yl)methyl)isoquinoline-1,5-diamine]
6 | 6.00 to 6.52 | 5.00 to 5.52 |  | Nc1nccc2c(NCc3cnc(N4CCn5c(nnc5C(F)(F)F)C4)cn3)cccc12 [Example 9002, N5-((5-(3-(trifluoromethyl)-5,6-dihydro-[1,2,4]triazolo[4,3-a]pyrazin-7(8H)-yl)pyrazin-2-yl)methyl)isoquinoline-1,5-diamine]
7 | 5.52 to 6.00 | 5.00 to 5.52 |  | Nc1nccc2c(NCc3cnc(N4CCn5c(nnc5C(F)(F)F)C4)nc3)cccc12 [Example 9003, N5-((2-(3-(trifluoromethyl)-5,6-dihydro-[1,2,4]triazolo[4,3-a]pyrazin-7(8H)-yl)pyrimidin-5-yl)methyl)isoquinoline-1,5-diamine]
8 | 7.00 to 8.00 | < 5.40 |  | CCc1cc(N2CCn3c(nnc3C(F)(F)F)C2)ncc1CNc1cccc2c(N)nccc12 [Example 1309, N5-((4-ethyl-6-(3-(trifluoromethyl)-5,6-dihydro-[1,2,4]triazolo[4,3-a]pyrazin-7(8H)-yl)pyridin-3-yl)methyl)isoquinoline-1,5-diamine]
9 |  | < 4.40 | < 4.40 | CC(C)Oc1cc(NCc2ccc(N3CCn4c(nnc4C(F)(F)F)C3)nc2)ccn1 [Example 1290, 2-isopropoxy-N-((6-(3-(trifluoromethyl)-5,6-dihydro-[1,2,4]triazolo[4,3-a]pyrazin-7(8H)-yl)pyridin-3-yl)methyl)pyridin-4-amine]
10 | 5.52 to 6.00 | 5.00 to 5.52 |  | CC(C)c1cc(N2CCn3c(nnc3C(F)(F)F)C2)ncc1CNc1cccc2c(N)nccc12 [Example 1308, N5-((4-isopropyl-6-(3-(trifluoromethyl)-5,6-dihydro-[1,2,4]triazolo[4,3-a]pyrazin-7(8H)-yl)pyridin-3-yl)methyl)isoquinoline-1,5-diamine]
11 |  | < 4.00 | < 4.40 | FC(F)(F)c1nnc2n1CCN(c1ccc(CNc3ccn4ccnc4c3)cn1)C2 [Example 1288, N-((6-(3-(trifluoromethyl)-5,6-dihydro-[1,2,4]triazolo[4,3-a]pyrazin-7(8H)-yl)pyridin-3-yl)methyl)imidazo[1,2-a]pyridin-7-amine]
